Experiment: xn = mol fraction of the nth substance listed

CCCCC(CC)COP(=O)(O)OCC(CC)CCCC (configuration not stated) + CC(=O)O
303.15 K, 101 kPa
Details	viscosity [mPa·s]
x1 = 0.0796	1.574
x1 = 0.1382	2.292
x1 = 0.2186	3.386
x1 = 0.3103	4.872
x1 = 0.3968	6.604
x1 = 0.4788	8.198
x1 = 0.5297	9.118
x1 = 0.6234	11.09
x1 = 0.6891	12.58
x1 = 0.7384	13.67
x1 = 0.8068	15.2
x1 = 0.8905	16.88
x1 = 0.9592	18.49

CCCCC(CC)COP(=O)(O)OCC(CC)CCCC (configuration not stated) + CCCCCCCCO
viscosity [mPa·s], 101 kPa
Details	303.15 K	313.15 K	323.15 K
x1 = 0.0433	6.599	4.84	3.531
x1 = 0.0469	6.819	–	–
x1 = 0.073	6.889	–	–
x1 = 0.0919	7.065	5.143	3.719
x1 = 0.1008	7.185	–	–
x1 = 0.1474	7.624	5.504	3.942
x1 = 0.1532	7.958	–	–
x1 = 0.2125	8.316	5.948	4.214
x1 = 0.276	9.907	–	–
x1 = 0.288	9.17	6.493	4.545
x1 = 0.3227	10.59	–	–
x1 = 0.377	10.25	7.177	4.957
x1 = 0.4481	12.38	–	–
x1 = 0.4848	11.66	8.068	5.489
x1 = 0.5519	13.89	–	–
x1 = 0.6176	13.58	9.263	6.195
x1 = 0.6183	14.78	–	–
x1 = 0.7209	16.04	–	–
x1 = 0.7843	16.27	10.92	7.162
x1 = 0.8137	17.09	–	–
x1 = 0.922	18.4	–	–

ClC1CCCCC1 + C1CCOC1
viscosity [mPa·s], 101.3 kPa
Details	x2 = 0.1036	x2 = 0.2057	x2 = 0.3029	x2 = 0.4018	x2 = 0.5079	x2 = 0.6003	x2 = 0.7026	x2 = 0.8045	x2 = 0.9032
298.15 K	1.38	1.22	1.087	0.9655	0.8521	0.7631	0.6748	0.5979	0.5278
313.15 K	1.085	0.9721	0.8761	0.7866	0.7016	0.6344	0.5652	0.5038	0.4475

CCCCC(CC)COP(=O)(O)OCC(CC)CCCC (configuration not stated) + CCCCO
303.15 K, 101 kPa
Details	viscosity [mPa·s]
x1 = 0.0419	2.97
x1 = 0.0842	3.693
x1 = 0.1206	4.321
x1 = 0.2162	6.156
x1 = 0.3122	8.132
x1 = 0.4528	11.18
x1 = 0.5519	12.85
x1 = 0.6567	14.57
x1 = 0.761	16.12
x1 = 0.8628	17.52
x1 = 0.9345	18.4

C[NH+](C)CCO.O=C([O-])CC(O)C(=O)O (configuration not stated) + O
101 kPa, x2 = 0.89
Details	viscosity [mPa·s]
298 K	18.3
313 K	10.3

Nc1ccc(Br)cc1 + [Br-].[Br-].[Br-].[Sb+3]
323.15 K, 101 kPa
Details	viscosity [mPa·s]
x2 = 0.25	212.7
x2 = 0.333	1215
x2 = 0.4	12170
x2 = 0.45	20000
x2 = 0.48	20530
x2 = 0.5	20730
x2 = 0.52	19960
x2 = 0.55	11640
x2 = 0.6	4143
x2 = 0.75	239.8

N + CO
viscosity [mPa·s], 100 kPa
Details	303 K	313 K
x1 = 0.16	0.48	0.4
x1 = 0.23	0.48	0.39

Source: the CheMixHub viscosity set
